Experimental data: patent US20230407243A1, “GENETIC PLATFORM TO INVESTIGATE THE FUNCTIONS OF BACTERIAL DRUG EFFLUX PUMPS” (priority 2022, published 2023)

Assays:
Format in all cases: cell-based, Escherichia coli
E. coli EKO-35 = test: microbe, parasite or virus in culture; settings: for Fold change of MICs: EKO-35 compared to EKO-35 (reference); for Minimum inhibitory concentration (MIC), EKO-35: Table 10, without pore; for Minimum inhibitory concentration (MIC), EKO-35 / Minimum Inhibitory Concentration, EKO-35: technical duplicate; for Minimum Inhibitory Concentration, EKO-35: Table 13A, non-porinated
Outline: (§1)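 Steps: LB overnight culture at 37 °C; resuspension in PBS to OD600 ~1.0; 1/2000 dilution in MHB II; addition to 2-fold serial compound dilutions (duplicate); 18 h shaking incubation at 37 °C; OD600 read, with pre-read subtracted.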

E. coli ΔtolC = test: microbe, parasite or virus in culture; settings: technical duplicate; for Minimum inhibitory concentration (MIC), ΔtolC: Table 10, without pore; for Minimum Inhibitory Concentration, ΔtolC: Table 13A, non-porinated
Outline: as §1

[1] = system: wild-type E. coli K-12 str. BW25113; test: microbe, parasite or virus in culture; settings: technical duplicate; for Minimum inhibitory concentration (MIC), K-12: Table 10, without pore; for Minimum Inhibitory Concentration, K-12: Table 13A, non-porinated
Outline: as §1

EKO-35 araC::acrBD408A = test: MIC susceptibility profiling, efflux platform; settings: for Fold change of MICs: EKO-35 araC::acrBD408A compared to EKO-35; for Minimum Inhibitory Concentration, EKO-35 araC::acrBD408A: Table 13B, non-porinated, technical duplicate
Outline: as §1

EKO-35 araC::acrB = test: MIC susceptibility profiling, efflux platform; settings: for Fold change of MICs: EKO-35 araC::acrB compared to EKO-35; for Minimum Inhibitory Concentration, EKO-35 araC::acrB: Table 13A, non-porinated, technical duplicate
Outline: as §1

EKO-35 araC::acrD = test: MIC susceptibility profiling, efflux platform; settings: for Fold change of MICs: EKO-35 araC::acrD compared to EKO-35; for Minimum Inhibitory Concentration, EKO-35 araC::acrD: Table 13A, non-porinated, technical duplicate
Outline: as §1

EKO-35 araC::acrEF = test: MIC susceptibility profiling, efflux platform; settings: for Fold change of MICs: EKO-35 araC::acrEF compared to EKO-35; for Minimum Inhibitory Concentration, EKO-35 araC::acrEF: Table 13A, non-porinated, technical duplicate
Outline: as §1

EKO-35 araC::emrAB = test: MIC susceptibility profiling, efflux platform; settings: for Fold change of MICs: EKO-35 araC::emrAB compared to EKO-35; for Minimum Inhibitory Concentration, EKO-35 araC::emrAB: Table 13B, non-porinated, technical duplicate
Outline: as §1

EKO-35 araC::emrKY = test: MIC susceptibility profiling, efflux platform; settings: for Fold change of MICs: EKO-35 araC::emrKY compared to EKO-35; for Minimum Inhibitory Concentration, EKO-35 araC::emrKY: Table 13B, non-porinated, technical duplicate
Outline: as §1

EKO-35 araC::macAB = test: MIC susceptibility profiling, efflux platform; settings: for Fold change of MICs: EKO-35 araC::macAB compared to EKO-35; for Minimum Inhibitory Concentration, EKO-35 araC::macAB: Table 13B, non-porinated, technical duplicate
Outline: as §1

EKO-35 araC::mdtBC = test: MIC susceptibility profiling, efflux platform; settings: for Fold change of MICs: EKO-35 araC::mdtBC compared to EKO-35; for Minimum Inhibitory Concentration, EKO-35 araC::mdtBC: Table 13B, non-porinated, technical duplicate
Outline: as §1

EKO-35 araC::mdtEF = test: MIC susceptibility profiling, efflux platform; settings: for Fold change of MICs: EKO-35 araC::mdtEF compared to EKO-35; for Minimum Inhibitory Concentration, EKO-35 araC::mdtEF: Table 13A, non-porinated, technical duplicate
Outline: as §1

[2] = system: EKO-35 araC::mexCD (MexCD from P. aeruginosa); test: MIC susceptibility profiling, efflux platform; settings: for Fold change of MICs: EKO-35 araC::mexCD compared to EKO-35; for Minimum Inhibitory Concentration, EKO-35 araC::mexCD: Table 13B, non-porinated, technical duplicate
Outline: as §1

wild-type (WT) K-12-Pore = test: microbe, parasite or virus in culture; settings: technical duplicate; for Minimum inhibitory concentration (MIC), Pore K-12: Table 10, with pore; for Minimum inhibitory concentration, K-12 (WT)-Pore: Table 14A, porinated
Outline: (§2)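 E. coli strains carrying a genomically integrated constitutive fhuA ΔC/Δ4L pore were grown 18 h in LB at 37 °C, then diluted 1/2000 in MHB II from OD600 ~1.0. Compounds were tested in duplicate, 2-fold serial titration, for 18 h at 37 °C with shaking. MIC came from OD600 with the pre-incubation background subtracted.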

ΔtolC-Pore = test: microbe, parasite or virus in culture; settings: technical duplicate; for Minimum inhibitory concentration (MIC), Pore ΔtolC: Table 10, with pore; for Minimum inhibitory concentration, ΔtolC-Pore: Table 14A, porinated
Outline: as §2

EKO-35-Pore = test: MIC susceptibility profiling, porinated strain; settings: for Fold changes of MICs: EKO-35-Pore compared to EKO-35-Pore (reference); for Minimum inhibitory concentration (MIC), Pore EKO-35: Table 10, with pore; for Minimum inhibitory concentration (MIC), Pore EKO-35 / Minimum inhibitory concentration, EKO-35-Pore: technical duplicate; for Minimum inhibitory concentration, EKO-35-Pore: Table 14A, porinated
Outline: as §2

[3] = system: EKO-35 araC::acrBD408A Pore; test: MIC susceptibility profiling, porinated efflux platform; settings: for Fold changes of MICs: EKO-35 araC::acrBD408A Pore compared to EKO-35-Pore; for Minimum inhibitory concentration: EKO-35 araC::acrBD408A Pore, technical duplicate
Outline: as §2

EKO-35 araC::acrD Pore = test: as above; settings: for Fold changes of MICs: EKO-35 araC::acrD Pore compared to EKO-35-Pore; for Minimum inhibitory concentration, EKO-35 araC::acrD Pore: Table 14A, porinated, technical duplicate
Outline: as §2

EKO-35 araC::emrKY Pore = test: as above; settings: for Fold changes of MICs: EKO-35 araC::emrKY Pore compared to EKO-35-Pore; for Minimum inhibitory concentration: EKO-35 araC::emrKY Pore, technical duplicate
Outline: as §2

Compound | Fold change of MICs (E. coli EKO-35) [fold] | Minimum inhibitory concentration (MIC), EKO-35 (E. coli EKO-35) [µg/mL] | Minimum Inhibitory Concentration, EKO-35 (E. coli EKO-35) [µg/mL] | Minimum inhibitory concentration (MIC), ΔtolC (E. coli ΔtolC) [µg/mL] | Minimum Inhibitory Concentration, ΔtolC (E. coli ΔtolC) [µg/mL] | Minimum inhibitory concentration (MIC), K-12 [1] [µg/mL] | Minimum Inhibitory Concentration, K-12 [1] [µg/mL] | Fold change of MICs (EKO-35 araC::acrBD408A) [fold] | Minimum Inhibitory Concentration, EKO-35 araC::acrBD408A (EKO-35 araC::acrBD408A) [µg/mL] | Minimum Inhibitory Concentration, EKO-35 araC::acrB (EKO-35 araC::acrB) [µg/mL] | Fold change of MICs (EKO-35 araC::acrD) [fold] | Minimum Inhibitory Concentration, EKO-35 araC::acrD (EKO-35 araC::acrD) [µg/mL] | Fold change of MICs (EKO-35 araC::acrEF) [fold] | Minimum Inhibitory Concentration, EKO-35 araC::acrEF (EKO-35 araC::acrEF) [µg/mL] | Fold change of MICs (EKO-35 araC::emrAB) [fold] | Minimum Inhibitory Concentration, EKO-35 araC::emrAB (EKO-35 araC::emrAB) [µg/mL] | Fold change of MICs (EKO-35 araC::emrKY) [fold] | Minimum Inhibitory Concentration, EKO-35 araC::emrKY (EKO-35 araC::emrKY) [µg/mL] | Fold change of MICs (EKO-35 araC::macAB) [fold] | Minimum Inhibitory Concentration, EKO-35 araC::macAB (EKO-35 araC::macAB) [µg/mL] | other results
O=C(Nc1ccccc1)Nc1ccc(Br)c(C(F)(F)F)c1 [compound 6] | 1 | 320 | 320 | 0.625 | 0.625 | 320 | 320 | 1 | 320 | 320 | 1 | 320 | 1 | 320 | 1 | 320 | 1 | 320 | 1 | 320 | Fold change of MICs (EKO-35 araC::acrB): 1 fold; Fold change of MICs (EKO-35 araC::mdtBC): 1 fold; Minimum Inhibitory Concentration, EKO-35 araC::mdtBC (EKO-35 araC::mdtBC): 320 µg/mL; Fold change of MICs (EKO-35 araC::mdtEF): 1 fold; Minimum Inhibitory Concentration, EKO-35 araC::mdtEF (EKO-35 araC::mdtEF): 320 µg/mL; Fold change of MICs [2]: 1 fold; Minimum Inhibitory Concentration, EKO-35 araC::mexCD [2]: 320 µg/mL; Minimum inhibitory concentration (MIC), Pore K-12 (wild-type (WT) K-12-Pore): 320 µg/mL; Minimum inhibitory concentration, K-12 (WT)-Pore (wild-type (WT) K-12-Pore): 320 µg/mL; Minimum inhibitory concentration (MIC), Pore ΔtolC (ΔtolC-Pore): 0.625 µg/mL; Minimum inhibitory concentration, ΔtolC-Pore (ΔtolC-Pore): 0.625 µg/mL; Fold changes of MICs (EKO-35-Pore): 1 fold; Minimum inhibitory concentration (MIC), Pore EKO-35 (EKO-35-Pore): 320 µg/mL; Minimum inhibitory concentration, EKO-35-Pore (EKO-35-Pore): 320 µg/mL; Fold changes of MICs [3]: 1 fold; Minimum inhibitory concentration [3]: 320 µg/mL; Fold changes of MICs (EKO-35 araC::acrD Pore): 1 fold; Minimum inhibitory concentration, EKO-35 araC::acrD Pore (EKO-35 araC::acrD Pore): 320 µg/mL; Fold changes of MICs (EKO-35 araC::emrKY Pore): 1 fold; Minimum inhibitory concentration (EKO-35 araC::emrKY Pore): 320 µg/mL
O=C(Nc1ccc(C(F)(F)F)cc1)Nc1ccc(C(F)(F)F)cc1 [compound 7] | 1 | 320 | 320 | 0.313 | 0.313 | 320 | 320 | 1 | 320 | 320 | 1 | 320 | 1 | 320 | 1 | 320 | 1 | 320 | 1 | 320 | Fold change of MICs (EKO-35 araC::acrB): 1 fold; Fold change of MICs (EKO-35 araC::mdtBC): 1 fold; Minimum Inhibitory Concentration, EKO-35 araC::mdtBC (EKO-35 araC::mdtBC): 320 µg/mL; Fold change of MICs (EKO-35 araC::mdtEF): 1 fold; Minimum Inhibitory Concentration, EKO-35 araC::mdtEF (EKO-35 araC::mdtEF): 320 µg/mL; Fold change of MICs [2]: 1 fold; Minimum Inhibitory Concentration, EKO-35 araC::mexCD [2]: 320 µg/mL; Minimum inhibitory concentration (MIC), Pore K-12 (wild-type (WT) K-12-Pore): 320 µg/mL; Minimum inhibitory concentration, K-12 (WT)-Pore (wild-type (WT) K-12-Pore): 320 µg/mL; Minimum inhibitory concentration (MIC), Pore ΔtolC (ΔtolC-Pore): 0.313 µg/mL; Minimum inhibitory concentration, ΔtolC-Pore (ΔtolC-Pore): 0.313 µg/mL; Fold changes of MICs (EKO-35-Pore): 1 fold; Minimum inhibitory concentration (MIC), Pore EKO-35 (EKO-35-Pore): 320 µg/mL; Minimum inhibitory concentration, EKO-35-Pore (EKO-35-Pore): 320 µg/mL; Fold changes of MICs [3]: 1 fold; Minimum inhibitory concentration [3]: 320 µg/mL; Fold changes of MICs (EKO-35 araC::acrD Pore): 1 fold; Minimum inhibitory concentration, EKO-35 araC::acrD Pore (EKO-35 araC::acrD Pore): 320 µg/mL; Fold changes of MICs (EKO-35 araC::emrKY Pore): 1 fold; Minimum inhibitory concentration (EKO-35 araC::emrKY Pore): 320 µg/mL
N#CC(C#N)=NNc1ccc(-n2ccc(C(F)(F)F)n2)cc1 [compound 8] | 1 | 320 | 320 | 1.25 | 1.25 | 640 | 640 | 1 | 320 | 640 | 1 | 160 | 1 | 320 | 1 | 320 | 1 | 320 | 1 | 320 | Fold change of MICs (EKO-35 araC::mdtBC): 1 fold; Minimum Inhibitory Concentration, EKO-35 araC::mdtBC (EKO-35 araC::mdtBC): 320 µg/mL; Fold change of MICs (EKO-35 araC::mdtEF): 1 fold; Minimum Inhibitory Concentration, EKO-35 araC::mdtEF (EKO-35 araC::mdtEF): 320 µg/mL; Fold change of MICs [2]: 1 fold; Minimum Inhibitory Concentration, EKO-35 araC::mexCD [2]: 320 µg/mL; Minimum inhibitory concentration (MIC), Pore K-12 (wild-type (WT) K-12-Pore): 160 µg/mL; Minimum inhibitory concentration, K-12 (WT)-Pore (wild-type (WT) K-12-Pore): 160 µg/mL; Minimum inhibitory concentration (MIC), Pore ΔtolC (ΔtolC-Pore): 1.25 µg/mL; Minimum inhibitory concentration, ΔtolC-Pore (ΔtolC-Pore): 1.25 µg/mL; Fold changes of MICs (EKO-35-Pore): 1 fold; Minimum inhibitory concentration (MIC), Pore EKO-35 (EKO-35-Pore): 80 µg/mL; Minimum inhibitory concentration, EKO-35-Pore (EKO-35-Pore): 80 µg/mL; Fold changes of MICs [3]: 1 fold; Minimum inhibitory concentration [3]: 80 µg/mL; Fold changes of MICs (EKO-35 araC::acrD Pore): 1 fold; Minimum inhibitory concentration, EKO-35 araC::acrD Pore (EKO-35 araC::acrD Pore): 40 µg/mL; Fold changes of MICs (EKO-35 araC::emrKY Pore): 1 fold; Minimum inhibitory concentration (EKO-35 araC::emrKY Pore): 80 µg/mL
